Data from US9931313B2, “Methods of treating proliferative disorders with malate or derivatives thereof” (Beth Israel Deaconess Medical Center, Inc., priority 2012, dated 2018).

Experiments:
[1] = tested on: A549 cells; assay: Survival of A549 cells in Hams/F12 medium without glucose, pyruvate and glutamine; assay type: cell-based, human; details: control and ME2 knockdown A549 cells, medium without pyruvate, glutamine
Method: A549 control or ME2 knockdown cells were grown in Hams/F12 based medium without glucose, pyruvate and glutamine. Different concentrations of glutamine were supplemented as indicated. The alive cells were stained with Nexin/7-ADD and analyzed by FACS. B: Exogenous supplementation of pyruvate can rescue ME2 depletion induced cell death. A549 control or ME2 knockdown cells were grown in Hams/F12 based medium without glucose, pyruvate and glutamine. Different concentrations of pyruvate were supplemented as indicated. The alive cells were stained with Nexin/7-ADD and analyzed by FACS. C and D: The effect of ME2 knockdown on de novo synthesis of PC is greater with ^13C6-Glc than with ^13C5, 1^5N2-Gln as tracer, as analyzed by FT-ICR-MS. E: Inhibition of ^13C3-citrate synthesis from ^13C6-Glc by ME2 knockdown, as determined by GC-MS. […] G and H: Effects of ME2 knockdown on the levels and fractional distribution of ^13C isotopologues of malate, as analyzed by GC-MS; rectangles depict ^13C2- (m2) and ^13C3-malate (m3) species as markers of the first turn of the Krebs cycle without and with pyruvate carboxylation input, respectively. […]

[2] = tested on: A549 cells; assay: Cisplatin treatment of A549 cells with or without ME2 knockdown, trypan blue count; assay type: cell-based, human; details: 20 μM cisplatin, 72 h
Method: ME2 knockdown and control cells were plated in 6-well plates, and 24 h later, the cell were treated with 20 μM cisplatin. After 72 h, cells were stained with trypan blue and live cells were counted. […] Approximately 5×10^6 ME2 deficient cells from ME2 specific shRNA or control pLKO cells were subcutaneously implanted into female athymic nude mice as described in Materials and Methods. Tumor size was measured and calculated. C: Depletion of ME2 inhibits mucin-1 and vimentin expression and increase differentiation marker E-cadherin and ZO-1 expression in vivo.

[3] = tested on: A549 xenograft tumors; assay: Cisplatin treatment of xenograft tumors from wild type and ME2 knockdown A549 cells; assay type: in vivo, athymic nude mice
Method: ME2 knockdown and control cells were plated in 6-well plates, and 24 h later, the cell were treated with 20 μM cisplatin. After 72 h, cells were stained with trypan blue and live cells were counted. […] Approximately 5×10^6 ME2 deficient cells from ME2 specific shRNA or control pLKO cells were subcutaneously implanted into female athymic nude mice as described in Materials and Methods. Tumor size was measured and calculated. C: Depletion of ME2 inhibits mucin-1 and vimentin expression and increase differentiation marker E-cadherin and ZO-1 expression in vivo. Animal experiments were performed under federal guidelines and approved by the Institutional Animal Care and Use Committee (IACUC) of the Beth Israel Deaconess Medical Center (Approval number 0342007). A549 xenografts in nude mice were generated by following the description of […] et al., in Biochem. Pharmacol. 72: 671-680 (2006). Briefly, approximately 10^7 ME2 deficient or control A549 cells resuspended in 200 μl of a serum-free culture medium/Matrigel mixture (1:1) were subcutaneously injected into the right and left flanks of male nude/nu/nu athymic mice, respectively. Tumor-bearing mice were sacrificed after 6-8 weeks and tumor masses were measured or imaged before excision. […]

[4] = tested on: A549 cells; assay: Annexin-V apoptosis / cell death assay in A549 cells; assay type: cell-based, human
Method: (§1) Apoptosis was measured by staining with the Nexin reagent using a Nexin kit and counting on the Guava PCA-96 system (Guava Technologies) as per the manufacture's protocol. Briefly, cells were harvested and re-suspended in 100 μl of 1× Nexin buffer, and then mixed with 100 μl of Annexin-V-PE, and Nexin 7-AAD. The cells were allowed to incubate for 20 minutes at room temperature and analyzed in the Guava flow cytometer.

[5] = tested on: normal human derived fibroblast (NHDF) and normal lung epithelial cells; assay: ROS by CM-H2DCFDA in normal cells; assay type: cell-based; details: 5, 10, 20 mM DMM
Method: (§2) A: Treatment with DMM induced ROS production in both normal human derived fibroblast (NHDF) and normal lung epithelial cells (Normal lung). ROS was detected by flow cytometry using indicator CM-H2DCFDA. Data are provided for the following curves (from left to right): 0, 5 mM, 10 mM, or 20 mM DMM. […] Cell death was analyzed by Annexin V reagent. Each histogram is representative of three experiments
Intracellular ROS production was measured by staining with CM-H2DCFDA. CM-H2DCFDA is a cell-permeant indicator for ROS that is nonfluorescent until removal of the acetate groups by intracellular esterases and oxidation occurs within the cell. The procedure for measuring ROS was carried out as described in Trachootham et al., in Cancer Cell. 10: 241-252 (2006), with minor modifications. […] Superoxide radicals (O2^−) were measured separately using the MitoSOX™ reagent according to the manufacturer's protocol (Invitrogen). In brief, cells with or without ME2 knockdown were incubated with 5 μM MitoSOX™ reagent for 10 minutes at 37° C., then washed three times and observed under a fluorescence microscope using the Rhodamine filter and Axiovision software for capturing images (Zeiss, Germany).

[6] = tested on: A549 cells; assay: Proliferation assay of A549 cells treated with DMM; assay type: cell-based, human
Method: Control and ME2 deficient cell lines were plated in 6-well plate at a density of 1×10^5 cells/well and maintained at 37° C. in a 5% CO2 incubator. After 24, 72, 120 and 168 hours of initial plating, 0.5 ml cells were diluted into 10 ml of Hanks' buffer and counted by Coulter counter. All samples were assayed in triplicate to generate proliferation curves, as described in Benson et al., Nature 441: 451-456 (2006). For the clonogenic assay, A549 with stably expression ME2 knockdown and control shRNA cells were seeded in a 6-well plate at a density of 200 cells per well. Colonies were fixed with 10% formaldehyde for 5 min and stained with 0.5% crystal violet for 30 min and counted with NIH image software.
To test whether malate accumulation may damage mitochondrial function and further inhibit cell growth, an exogenous form of malate was delivered in vitro. Exogenous malate may mimic the phenotype-induced by ME2 knockdown. Therefore, we supplemented exogenous cell-permeable malate (Heart et al., Am. J. Physiol. 296: E1354-1362 (2009)) in A549 cell growth media and compared the phenotype with ME2 knockdown cells. DMM, being cell permeable, was used as an exogenous substitute for malate.

[7] = tested on: A549 cells; assay: Mitochondrial superoxide by MitoSOX Red in A549 cells; assay type: cell-based, human; details: 20 mM DMM for four days
Method: (§3) Intracellular ROS production was measured by staining with CM-H2DCFDA. CM-H2DCFDA is a cell-permeant indicator for ROS that is nonfluorescent until removal of the acetate groups by intracellular esterases and oxidation occurs within the cell. The procedure for measuring ROS was carried out as described in Trachootham et al., in Cancer Cell. 10: 241-252 (2006), with minor modifications. Briefly, A549 cells transduced with shRNA lentiviral particles or control vector were selected with puromycin for 2 weeks, and then incubated with 5 μM CM-H2DCF-DA for 3 hours, followed by flow cytometry using a FACSCalibur equipped with CellQuest Pro software. Superoxide radicals (O2^−) were measured separately using the MitoSOX™ reagent according to the manufacturer's protocol (Invitrogen). In brief, cells with or without ME2 knockdown were incubated with 5 μM MitoSOX™ reagent for 10 minutes at 37° C., then washed three times and observed under a fluorescence microscope using the Rhodamine filter and Axiovision software for capturing images (Zeiss, Germany).
We measured the ROS source using MitoSOX™ Red, a reagent that selectively targeted to the mitochondria.

[8] = target: T1, ME2-C (Homo sapiens, UniProt P23368); assay: In vitro activity of modified ME2 (ME2-C), absorbance at 340 nm; assay type: biochemical; details: 5, 15 and 45 mM DMM; 15 mM L-malate, 1 mM NAD+, 60 nM ME2-C, 37° C.
T1 construct: His tag (C); FLAG tag (cleavable) (C); made in house; host or cells: E. coli BL21(DE3)
T1 sequence (P23368 19-584): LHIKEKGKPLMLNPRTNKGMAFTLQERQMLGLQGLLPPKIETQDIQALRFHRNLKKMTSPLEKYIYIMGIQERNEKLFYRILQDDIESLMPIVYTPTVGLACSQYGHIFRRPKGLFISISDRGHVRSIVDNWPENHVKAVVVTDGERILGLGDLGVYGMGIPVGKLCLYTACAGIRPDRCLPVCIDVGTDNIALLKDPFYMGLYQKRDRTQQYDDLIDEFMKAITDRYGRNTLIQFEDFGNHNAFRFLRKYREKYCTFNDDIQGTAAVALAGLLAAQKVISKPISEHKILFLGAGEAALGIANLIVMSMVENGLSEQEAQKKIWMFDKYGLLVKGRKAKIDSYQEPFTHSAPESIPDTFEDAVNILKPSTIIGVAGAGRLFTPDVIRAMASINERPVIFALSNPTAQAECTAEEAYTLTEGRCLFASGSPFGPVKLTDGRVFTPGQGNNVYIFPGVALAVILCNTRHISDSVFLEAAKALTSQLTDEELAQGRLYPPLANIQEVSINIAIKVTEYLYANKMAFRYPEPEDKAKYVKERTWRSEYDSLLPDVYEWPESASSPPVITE
Method: Modified ME2 is a recombinant ME2 protein having a C-terminus His tag and lacking the mitochondrial targeting sequence (ME2-C) was prepared, as described in Loeber et al., J. Biol. Chem. 266:3016-3021 (1991). The 200 μl assay mixture contained 30 mM of Tris-HCl (pH 7.4), 15 mM of L-malate (pH 7.4), 1 mM of NAD^+, 2 mM of MnCl2, and 60 nM of ME2-C. Different concentrations of DMM (pH 7.4) were tested, namely 5, 15 and 45 mM. The absorbance of the solution at 340 nm was monitored continuously with a Beckman Coulter DTX 880 multimode spectrophotometer at 37° C.
To further determine compounds that can be used to inhibit ME2 and/or increase intracellular malate, or a derivative thereof, an ME2 assay was established. Accordingly, a modified ME2 protein was constructed using a human ME2 expression vector and a bacterial expression system (E. coli BL21(DE3)) with a cleavable FLAG tag. Both N- and C-terminal constructs were assessed for protein production, and the mitochondrial targeting sequence was deleted in the constructs, as described in Loeber et al., J. Biol. Chem. 266:3016-3021 (1991), which is incorporated herein by reference. Kinetic experiments were performed with C-terminal tagged ME2 (ME2-C) and with an assay mixture containing 30 mM of Tris-HCl (pH 7.4), 15 mM of L-malate (pH 7.4), 1 mM of NAD+, 2 mM of MnCl2, and 60 nM of ME2-C. […]

[9] = tested on: normal human derived fibroblast (NHDF) and normal lung epithelial cells; assay: Cell death by Annexin V in normal cells; assay type: cell-based
Method: as §2, §1

[10] = tested on: A549 cells; assay: Cellular ROS by CM-H2DCFDA flow cytometry in A549 cells; assay type: cell-based, human
Method: as §3

[11] = tested on: Akt and PDK1; assay: Western blotting of Akt/PDK1 phosphorylation and differentiation marker in A549 cells; assay type: cell-based, human; details: A549 cells in vitro
Method: A549 cells with and without ME2 knockdown were lysed with RIPA buffer (50 mM Tris-HCl, pH 7.4, 150 mM NaCl, 1% NP-40, 0.1% SDS and 0.5% sodium deoxycholate), and equal amount of proteins were resolved by 4%-12% Bis-Tris gels (Invitrogen), as previously described in Ren et al., Proc. Natl Acad. Sci. USA 104: 10465-10469 (2007). Briefly, the proteins were transferred to a PVDF membrane, and membranes were blocked with BLOTTO (5% nonfat dry milk and 0.1% Tween 20 in PBS), and incubated with antisera generated against ME2, phospho-AKT380, phosphor-473, AKT1/2, phosphor-ERK1/2, ERK1, vimentin, GATA-1 or β-tubulin antibodies, respectively. Membranes were washed in PBS plus 0.1% Tween 20 and probed with anti-rabbit or anti-mouse HRP-conjugated secondary antibody (both at 1:10,000 dilution), and proteins were detected using the ECL Plus chemiluminescence detection reagent (Amersham Biosciences).

[12] = tested on: A549 xenograft tumors; assay: A549 xenograft in nude mice treated with DMM, cisplatin or both; assay type: in vivo, athymic nude mice
Method: Approximately 5×10^6 control pLKO cells were subcutaneously implanted into female athymic nude mice. Mice were treated with DMM, cisplatin (CP), a combination of cisplatin with DMM (CP+DMM), or control (PBS), as described herein. Tumor size was measured and calculated. B: Direct injection of DMM into xenograft tumors caused shrinkage and ulceration of tumors, as compared to control with PBS.
Animal experiments were performed under federal guidelines and approved by the Institutional Animal Care and Use Committee (IACUC) of the Beth Israel Deaconess Medical Center (Approval number 0342007). A549 xenografts in nude mice were generated by following the description of Verrax et al., in Biochem. Pharmacol. 72: 671-680 (2006). Briefly, approximately 10^7 ME2 deficient or control A549 cells resuspended in 200 μl of a serum-free culture medium/Matrigel mixture (1:1) were subcutaneously injected into the right and left flanks of male nude/nu/nu athymic mice, respectively. Tumor-bearing mice were sacrificed after 6-8 weeks and tumor masses were measured or imaged before excision. Tumor lysates were prepared by homogenization of tumor tissues in RIPA lysis buffer and were resolved by SDS-PAGE and transferred onto PDVF membranes and immunoblotted with anti-ME2 antibody and normalized by β-tubulin as a loading control.

[13] = direct intratumoral injection, vs PBS

## NC(=O)CC[C@H](N)C(=O)O [glutamine]
[1]
  rescue of cell survival by supplementation: rescued control cells more than ME2 knockdown cells

## N.N.[Cl][Pt][Cl] [cisplatin]
[2]
  sensitivity of A549 cells to cisplatin treatment with ME2 deficiency: increased the sensitivity
[3]; ME2 knockdown A549 xenografts
  later growth of ME2 knockdown tumors (resumed at about 350 mm^3): prevent this later tumor growth
[3]; combination of ME2 depletion and cisplatin
  E-cadherin and mucin-1 expression in vivo: affected

## COC(=O)CC(O)C(=O)OC (stereo not shown) [DMM, dimethyl malate]
[4]; A549 cells
  mode of cell death induced by DMM (annexin V assay): induced necrosis in A549 cells rather than apoptosis
[4]; compared with normal cell lines
  cell death in A549 cancer cell: selectively induced cell death
[5]
  ROS production in normal cell lines: enhanced ROS production
[6]; 10 and 20 mM DMM, control (pLKO) and ME2 knockdown (shME2-3) A549 cells
  proliferation of A549 cells: significantly inhibited
[6]; shME2-3 vs pLKO A549 cells
  sensitivity of ME2 knockdown cells to DMM treatment compared to control cancer cells: more sensitive
[7]
  superoxide (MitoSOX Red): increased presence of superoxide
[8]
  activity of ME2-C: decreased the activity
[9]
  cell death in normal cell lines: not in the normal cell lines
[10]; 3 h to 3 days
  time course of DMM-induced ROS production: time-dependent
[10]; A549 cells, exogenous DMM 5, 10, 20 mM
  ROS production (CM-H2DCFDA): enhanced production of ROS
[11]
  E-cadherin expression: increased
[11]; p-AKT473 and p-PDK1
  basal Akt and PDK1 activity: inhibited
[12]; 0.5 g/kg of DMM
  A549 tumor growth in vivo: significantly inhibited
[12]; [13]
  tumor size after direct injection into A549 xenograft tumors: decreases in tumor size
  tumor tissue appearance after direct injection into A549 xenograft tumors: ulceration of the tumor tissue
